Measurements published in US9340590B2 (priority 2011, dated 2016).
Read-outs that look alike come from different tables or passages of the source.

Key:
Test in all cases: cell-based
hNav1.7 = hNav1.7 (Homo sapiens, UniProt Q15858); assay type: cell-based; conditions: IonWorks Quattro, use-dependent protocol, hNav1.7; read-out: IWQ Use Nav1.7
hNav1.5 = hNav1.5 (Homo sapiens, UniProt Q14524)
hNav1.3 = hNav1.3 (Homo sapiens, UniProt Q9NY46); conditions: IonWorks Quattro, use-dependent protocol, hNav1.3; read-out: IWQ Use Nav1.3
[1] = IonWorks Quattro, use-dependent protocol, hNav1.5, read-out: IWQ Use Nav1.5

Chain of hNav1.5 (Q14524 whole entry, looked up): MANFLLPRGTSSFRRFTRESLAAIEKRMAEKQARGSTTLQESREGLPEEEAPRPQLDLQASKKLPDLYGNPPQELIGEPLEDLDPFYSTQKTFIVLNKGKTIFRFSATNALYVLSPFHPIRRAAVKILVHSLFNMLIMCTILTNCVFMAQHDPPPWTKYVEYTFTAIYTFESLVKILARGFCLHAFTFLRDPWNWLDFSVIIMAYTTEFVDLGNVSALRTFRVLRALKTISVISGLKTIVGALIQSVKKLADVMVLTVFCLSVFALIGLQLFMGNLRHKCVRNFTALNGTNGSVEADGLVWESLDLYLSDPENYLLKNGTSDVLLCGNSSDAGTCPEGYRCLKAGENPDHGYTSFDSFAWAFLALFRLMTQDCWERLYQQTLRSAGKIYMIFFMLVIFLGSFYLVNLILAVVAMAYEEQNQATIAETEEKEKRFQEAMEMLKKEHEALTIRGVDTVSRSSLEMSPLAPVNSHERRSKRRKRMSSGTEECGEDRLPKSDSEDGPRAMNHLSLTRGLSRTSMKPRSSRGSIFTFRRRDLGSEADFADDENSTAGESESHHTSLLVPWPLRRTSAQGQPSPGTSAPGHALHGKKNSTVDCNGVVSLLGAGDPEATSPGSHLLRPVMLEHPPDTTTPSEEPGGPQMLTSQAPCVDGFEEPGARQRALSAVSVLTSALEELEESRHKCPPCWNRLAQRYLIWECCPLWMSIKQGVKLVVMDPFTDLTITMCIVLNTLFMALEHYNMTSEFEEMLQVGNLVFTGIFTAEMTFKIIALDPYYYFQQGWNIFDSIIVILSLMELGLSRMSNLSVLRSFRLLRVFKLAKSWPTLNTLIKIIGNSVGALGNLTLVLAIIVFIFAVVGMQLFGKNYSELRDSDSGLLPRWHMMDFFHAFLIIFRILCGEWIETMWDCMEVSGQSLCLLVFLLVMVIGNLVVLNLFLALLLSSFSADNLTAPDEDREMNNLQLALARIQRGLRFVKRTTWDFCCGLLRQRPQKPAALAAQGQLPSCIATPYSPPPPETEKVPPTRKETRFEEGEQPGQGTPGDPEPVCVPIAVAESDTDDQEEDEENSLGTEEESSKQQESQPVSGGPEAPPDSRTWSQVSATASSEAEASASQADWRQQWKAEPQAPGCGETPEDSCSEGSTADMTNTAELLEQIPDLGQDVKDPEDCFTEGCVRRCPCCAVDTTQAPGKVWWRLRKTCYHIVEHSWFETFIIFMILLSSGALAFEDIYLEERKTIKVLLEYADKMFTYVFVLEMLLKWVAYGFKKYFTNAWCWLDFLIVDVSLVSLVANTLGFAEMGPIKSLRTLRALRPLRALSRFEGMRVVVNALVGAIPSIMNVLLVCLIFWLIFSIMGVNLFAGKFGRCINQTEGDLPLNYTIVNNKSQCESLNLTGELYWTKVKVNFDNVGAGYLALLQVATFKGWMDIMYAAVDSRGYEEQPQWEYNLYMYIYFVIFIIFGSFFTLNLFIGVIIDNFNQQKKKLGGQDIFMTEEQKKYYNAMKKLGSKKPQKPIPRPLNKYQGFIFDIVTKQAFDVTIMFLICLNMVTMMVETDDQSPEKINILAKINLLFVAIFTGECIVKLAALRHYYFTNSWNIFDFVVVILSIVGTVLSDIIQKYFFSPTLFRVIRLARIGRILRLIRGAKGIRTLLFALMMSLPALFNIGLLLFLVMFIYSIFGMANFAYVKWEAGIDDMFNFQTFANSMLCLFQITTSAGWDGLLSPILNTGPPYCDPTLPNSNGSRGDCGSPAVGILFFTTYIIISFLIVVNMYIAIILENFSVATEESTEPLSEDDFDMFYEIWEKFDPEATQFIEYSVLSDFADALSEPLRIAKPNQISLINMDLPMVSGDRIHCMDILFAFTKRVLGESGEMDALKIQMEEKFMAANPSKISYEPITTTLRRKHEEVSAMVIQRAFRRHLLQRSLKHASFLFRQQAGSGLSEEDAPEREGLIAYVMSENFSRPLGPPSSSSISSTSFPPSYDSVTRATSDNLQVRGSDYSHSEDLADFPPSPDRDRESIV
Chain of hNav1.7 (Q15858 whole entry, looked up): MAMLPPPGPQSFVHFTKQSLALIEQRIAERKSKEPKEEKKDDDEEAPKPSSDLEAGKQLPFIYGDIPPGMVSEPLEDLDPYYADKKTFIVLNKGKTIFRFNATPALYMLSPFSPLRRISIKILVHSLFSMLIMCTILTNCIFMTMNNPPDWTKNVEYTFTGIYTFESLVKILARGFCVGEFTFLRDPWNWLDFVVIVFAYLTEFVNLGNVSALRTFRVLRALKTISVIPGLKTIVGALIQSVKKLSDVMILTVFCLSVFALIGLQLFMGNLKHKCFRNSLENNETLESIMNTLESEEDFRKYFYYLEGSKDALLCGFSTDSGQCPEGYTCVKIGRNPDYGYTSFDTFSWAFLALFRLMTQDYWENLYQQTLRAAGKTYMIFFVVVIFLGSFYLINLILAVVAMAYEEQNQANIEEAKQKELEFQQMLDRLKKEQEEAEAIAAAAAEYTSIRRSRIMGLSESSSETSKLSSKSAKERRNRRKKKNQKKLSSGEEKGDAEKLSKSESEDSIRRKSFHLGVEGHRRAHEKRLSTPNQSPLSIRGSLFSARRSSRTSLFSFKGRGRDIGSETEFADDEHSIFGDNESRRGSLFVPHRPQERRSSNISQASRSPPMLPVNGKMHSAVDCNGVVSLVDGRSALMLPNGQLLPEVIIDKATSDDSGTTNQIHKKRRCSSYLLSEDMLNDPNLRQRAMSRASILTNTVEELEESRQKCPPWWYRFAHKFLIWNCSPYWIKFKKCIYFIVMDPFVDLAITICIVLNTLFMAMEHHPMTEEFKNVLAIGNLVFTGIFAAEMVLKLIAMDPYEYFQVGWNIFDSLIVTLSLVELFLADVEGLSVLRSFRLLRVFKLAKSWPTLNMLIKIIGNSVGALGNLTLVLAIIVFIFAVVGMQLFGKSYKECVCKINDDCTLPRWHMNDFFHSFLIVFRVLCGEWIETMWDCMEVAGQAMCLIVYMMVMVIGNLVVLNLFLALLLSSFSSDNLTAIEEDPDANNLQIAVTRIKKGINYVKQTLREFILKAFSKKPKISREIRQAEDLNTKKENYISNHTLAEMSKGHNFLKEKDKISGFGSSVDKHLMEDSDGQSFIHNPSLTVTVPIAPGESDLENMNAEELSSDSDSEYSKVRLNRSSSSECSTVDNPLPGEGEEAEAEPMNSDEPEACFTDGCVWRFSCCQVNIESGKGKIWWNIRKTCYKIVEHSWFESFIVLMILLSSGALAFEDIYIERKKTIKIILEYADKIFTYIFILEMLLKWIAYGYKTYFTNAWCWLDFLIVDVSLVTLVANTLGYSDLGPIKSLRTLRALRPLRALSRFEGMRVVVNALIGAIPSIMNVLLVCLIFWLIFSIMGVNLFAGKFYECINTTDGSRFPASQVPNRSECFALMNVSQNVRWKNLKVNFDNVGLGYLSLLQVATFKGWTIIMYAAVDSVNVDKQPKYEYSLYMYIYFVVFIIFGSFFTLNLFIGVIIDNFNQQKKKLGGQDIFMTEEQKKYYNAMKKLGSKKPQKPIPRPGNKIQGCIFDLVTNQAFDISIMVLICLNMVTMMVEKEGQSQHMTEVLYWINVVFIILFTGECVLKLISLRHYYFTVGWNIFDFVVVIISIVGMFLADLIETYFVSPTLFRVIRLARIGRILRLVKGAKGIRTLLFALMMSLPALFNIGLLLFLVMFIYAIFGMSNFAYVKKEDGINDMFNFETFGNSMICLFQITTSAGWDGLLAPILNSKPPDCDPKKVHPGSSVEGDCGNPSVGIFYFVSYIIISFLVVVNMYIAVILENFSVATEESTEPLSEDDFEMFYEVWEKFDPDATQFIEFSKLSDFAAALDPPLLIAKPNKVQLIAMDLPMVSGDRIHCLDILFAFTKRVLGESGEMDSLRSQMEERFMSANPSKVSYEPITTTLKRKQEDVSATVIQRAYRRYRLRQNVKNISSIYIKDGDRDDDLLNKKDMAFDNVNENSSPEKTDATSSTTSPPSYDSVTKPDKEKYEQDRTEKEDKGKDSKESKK

Row | SMILES | IC50 (hNav1.7) | IC50 (hNav1.5; [1]) | IC50 (hNav1.3) | IC50 (hNav1.5; IWQ Use Nav1.5)
1 | CC[C@H](C)[C@@H]1NC(=O)[C@@H]2CSSC[C@@H]3NC(=O)[C@H](C(C)C)NC(=O)[C@H](CC(C)C)NC(=O)[C@H](CC(N)=O)NC(=O)[C@@H]4CCCN4C(=O)[C@H](CCCNC(=N)N)NC(=O)[C@H](CSSC[C@H](NC(=O)[C@@H](N)CC(=O)O)C(=O)N[C@@H](CC(C)C)C(=O)NCC(=O)N(C)[C@@H](C(C)C)C(=O)N[C@@H](CC(C)C)C(=O)N[C@@H](CCCNC(=N)N)C(=O)N[C@@H](CCCCN)C(=O)N2)NC(=O)[C@H](CSSC[C@@H](C(=O)N[C@@H](CCCCN)C(=O)N[C@@H](Cc2ccc(O)cc2)C(=O)N[C@H](C(=O)N[C@@H](Cc2ccccc2)C(N)=O)C(C)C)NC(=O)[C@H](Cc2c[nH]c4ccccc24)NC(=O)[C@H](CCCCN)NC(=O)[C@H](Cc2c[nH]cn2)NC(=O)[C@H]([C@@H](C)O)NC(=O)[C@H](CCCNC(=N)N)NC(=O)[C@H](CO)NC3=O)NC(=O)[C@H](CCCCN)NC(=O)[C@H](CC(=O)O)NC(=O)[C@H](CC(N)=O)NC(=O)[C@H](CC(=O)O)NC(=O)[C@@H]2CCCN2C1=O [compound 672] | 470 nM | > 5000 nM | 750 nM | 
2 | CC[C@H](C)[C@@H]1NC(=O)[C@@H]2CSSC[C@@H]3NC(=O)[C@H](C(C)C)NC(=O)[C@H](CC(C)C)NC(=O)[C@H](CC(N)=O)NC(=O)[C@@H]4CCCN4C(=O)[C@H](CCCNC(=N)N)NC(=O)[C@H](CSSC[C@H](NC(=O)[C@@H](N)CC(=O)O)C(=O)N[C@@H](CC(C)C)C(=O)NCC(=O)N(C)[C@@H](CC(C)C)C(=O)N[C@@H](CC(C)C)C(=O)N[C@@H](CCCNC(=N)N)C(=O)N[C@@H](CCCCN)C(=O)N2)NC(=O)[C@H](CSSC[C@@H](C(=O)N[C@@H](CCCCN)C(=O)N[C@@H](Cc2ccc(O)cc2)C(=O)N[C@H](C(=O)N[C@@H](Cc2ccccc2)C(N)=O)C(C)C)NC(=O)[C@H](Cc2c[nH]c4ccccc24)NC(=O)[C@H](CCCCN)NC(=O)[C@H](Cc2c[nH]cn2)NC(=O)[C@H]([C@@H](C)O)NC(=O)[C@H](CCCNC(=N)N)NC(=O)[C@H](CO)NC3=O)NC(=O)[C@H](CCCCN)NC(=O)[C@H](CC(=O)O)NC(=O)[C@H](CC(N)=O)NC(=O)[C@H](CC(=O)O)NC(=O)[C@@H]2CCCN2C1=O [compound 673] | 170 nM | > 5000 nM | 690 nM | 
3 | CC[C@H](C)[C@@H]1NC(=O)[C@@H]2CSSC[C@@H]3NC(=O)[C@H](C(C)C)NC(=O)[C@H](CC(C)C)NC(=O)[C@H](CC(N)=O)NC(=O)[C@@H]4CCCN4C(=O)[C@H](CCCNC(=N)N)NC(=O)[C@H](CSSC[C@H](NC(=O)[C@@H](N)CC(=O)O)C(=O)N[C@@H](CC(C)C)C(=O)NCC(=O)N(C)[C@@H](Cc4ccccc4)C(=O)N[C@@H](CC(C)C)C(=O)N[C@@H](CCCNC(=N)N)C(=O)N[C@@H](CCCCN)C(=O)N2)NC(=O)[C@H](CSSC[C@@H](C(=O)N[C@@H](CCCCN)C(=O)N[C@@H](Cc2ccc(O)cc2)C(=O)N[C@H](C(=O)N[C@@H](Cc2ccccc2)C(N)=O)C(C)C)NC(=O)[C@H](Cc2c[nH]c4ccccc24)NC(=O)[C@H](CCCCN)NC(=O)[C@H](Cc2c[nH]cn2)NC(=O)[C@H]([C@@H](C)O)NC(=O)[C@H](CCCNC(=N)N)NC(=O)[C@H](CO)NC3=O)NC(=O)[C@H](CCCCN)NC(=O)[C@H](CC(=O)O)NC(=O)[C@H](CC(N)=O)NC(=O)[C@H](CC(=O)O)NC(=O)[C@@H]2CCCN2C1=O [compound 674] | 240 nM | > 5000 nM | 310 nM | 
4 | CC[C@H](C)[C@@H]1NC(=O)[C@@H]2CSSC[C@@H]3NC(=O)[C@H](C(C)C)NC(=O)[C@H](CC(C)C)NC(=O)[C@H](CC(N)=O)NC(=O)[C@@H]4CCCN4C(=O)[C@H](CCCNC(=N)N)NC(=O)[C@H](CSSC[C@H](NC(=O)[C@@H](N)CC(=O)O)C(=O)N[C@@H](CC(C)C)C(=O)NCC(=O)N[C@@H](Cc4ccccc4Cl)C(=O)N[C@@H](CC(C)C)C(=O)N[C@@H](CCCNC(=N)N)C(=O)N[C@@H](CCCCN)C(=O)N2)NC(=O)[C@H](CSSC[C@@H](C(=O)N[C@@H](CCCCN)C(=O)N[C@@H](Cc2ccc(O)cc2)C(=O)N[C@H](C(=O)N[C@@H](Cc2ccccc2)C(N)=O)C(C)C)NC(=O)[C@H](Cc2c[nH]c4ccccc24)NC(=O)[C@H](CCCCN)NC(=O)[C@H](Cc2c[nH]cn2)NC(=O)[C@H]([C@@H](C)O)NC(=O)[C@H](CCCNC(=N)N)NC(=O)[C@H](CO)NC3=O)NC(=O)[C@H](CCCCN)NC(=O)[C@H](CC(=O)O)NC(=O)[C@H](CC(N)=O)NC(=O)[C@H](CC(=O)O)NC(=O)[C@@H]2CCCN2C1=O [compound 675] | 66 nM | > 5000 nM | 72 nM | 
5 | CC[C@H](C)[C@@H]1NC(=O)[C@@H]2CSSC[C@@H]3NC(=O)[C@H](C(C)C)NC(=O)[C@H](CC(C)C)NC(=O)[C@H](CC(N)=O)NC(=O)[C@@H]4CCCN4C(=O)[C@H](CCCNC(=N)N)NC(=O)[C@H](CSSC[C@H](NC(=O)[C@@H](N)CC(=O)O)C(=O)N[C@@H](CC(C)C)C(=O)NCC(=O)N[C@@H](CCc4ccccc4)C(=O)N[C@@H](CC(C)C)C(=O)N[C@@H](CCCNC(=N)N)C(=O)N[C@@H](CCCCN)C(=O)N2)NC(=O)[C@H](CSSC[C@@H](C(=O)N[C@@H](CCCCN)C(=O)N[C@@H](Cc2ccc(O)cc2)C(=O)N[C@H](C(=O)N[C@@H](Cc2ccccc2)C(N)=O)C(C)C)NC(=O)[C@H](Cc2c[nH]c4ccccc24)NC(=O)[C@H](CCCCN)NC(=O)[C@H](Cc2c[nH]cn2)NC(=O)[C@H]([C@@H](C)O)NC(=O)[C@H](CCCNC(=N)N)NC(=O)[C@H](CO)NC3=O)NC(=O)[C@H](CCCCN)NC(=O)[C@H](CC(=O)O)NC(=O)[C@H](CC(N)=O)NC(=O)[C@H](CC(=O)O)NC(=O)[C@@H]2CCCN2C1=O [compound 676] | 16 nM | > 5000 nM | 61 nM | 
6 | CCCCCCCC[C@@H]1NC(=O)CNC(=O)[C@H](CC(C)C)NC(=O)[C@@H](NC(=O)[C@@H](N)CC(=O)O)CSSC[C@@H]2NC(=O)[C@@H]3CSSC[C@@H](C(=O)N[C@@H](CCCCN)C(=O)N[C@@H](Cc4ccc(O)cc4)C(=O)N[C@H](C(=O)N[C@@H](Cc4ccccc4)C(N)=O)C(C)C)NC(=O)[C@H](Cc4c[nH]c5ccccc45)NC(=O)[C@H](CCCCN)NC(=O)[C@H](Cc4c[nH]cn4)NC(=O)[C@H]([C@@H](C)O)NC(=O)[C@H](CCCNC(=N)N)NC(=O)[C@H](CO)NC(=O)[C@H](CSSC[C@H](NC(=O)[C@H](CCCCN)NC(=O)[C@H](CCCNC(=N)N)NC(=O)[C@H](CCSC)NC1=O)C(=O)N[C@@H]([C@@H](C)CC)C(=O)N1CCC[C@H]1C(=O)N[C@@H](CC(=O)O)C(=O)N[C@@H](CC(N)=O)C(=O)N[C@@H](CC(=O)O)C(=O)N[C@@H](CCCCN)C(=O)N3)NC(=O)[C@H](C(C)C)NC(=O)[C@H](CC(C)C)NC(=O)[C@H](CC(N)=O)NC(=O)[C@@H]1CCCN1C(=O)[C@H](CCCNC(=N)N)NC2=O [compound 677] | 170 nM |  | 170 nM | > 5000 nM
7 | CC[C@H](C)[C@@H]1NC(=O)[C@@H]2CSSC[C@@H]3NC(=O)[C@H](C(C)C)NC(=O)[C@H](CC(C)C)NC(=O)[C@H](CC(N)=O)NC(=O)[C@@H]4CCCN4C(=O)[C@H](CCCNC(=N)N)NC(=O)[C@H](CSSC[C@H](NC(=O)[C@@H](N)CC(=O)O)C(=O)N[C@@H](CC(C)C)C(=O)NCC(=O)N[C@@H](C(C)(C)C)C(=O)N[C@@H](CCSC)C(=O)N[C@@H](CCCNC(=N)N)C(=O)N[C@@H](CCCCN)C(=O)N2)NC(=O)[C@H](CSSC[C@@H](C(=O)N[C@@H](CCCCN)C(=O)N[C@@H](Cc2ccc(O)cc2)C(=O)N[C@H](C(=O)N[C@@H](Cc2ccccc2)C(N)=O)C(C)C)NC(=O)[C@H](Cc2c[nH]c4ccccc24)NC(=O)[C@H](CCCCN)NC(=O)[C@H](Cc2cnc[nH]2)NC(=O)[C@H]([C@@H](C)O)NC(=O)[C@H](CCCNC(=N)N)NC(=O)[C@H](CO)NC3=O)NC(=O)[C@H](CCCCN)NC(=O)[C@H](CC(=O)O)NC(=O)[C@H](CC(N)=O)NC(=O)[C@H](CC(=O)O)NC(=O)[C@@H]2CCCN2C1=O [compound 678] | 700 nM |  | 1360 nM | > 5000 nM
8 | CC[C@H](C)[C@@H]1NC(=O)[C@@H]2CSSC[C@@H]3NC(=O)[C@H](C(C)C)NC(=O)[C@H](CC(C)C)NC(=O)[C@H](CC(N)=O)NC(=O)[C@@H]4CCCN4C(=O)[C@H](CCCNC(=N)N)NC(=O)[C@H](CSSC[C@H](NC(=O)[C@@H](N)CC(=O)O)C(=O)N[C@@H](CC(C)C)C(=O)NCC(=O)N[C@@H](CCC(C)C)C(=O)N[C@@H](CCSC)C(=O)N[C@@H](CCCNC(=N)N)C(=O)N[C@@H](CCCCN)C(=O)N2)NC(=O)[C@H](CSSC[C@@H](C(=O)N[C@@H](CCCCN)C(=O)N[C@@H](Cc2ccc(O)cc2)C(=O)N[C@H](C(=O)N[C@@H](Cc2ccccc2)C(N)=O)C(C)C)NC(=O)[C@H](Cc2c[nH]c4ccccc24)NC(=O)[C@H](CCCCN)NC(=O)[C@H](Cc2c[nH]cn2)NC(=O)[C@H]([C@@H](C)O)NC(=O)[C@H](CCCNC(=N)N)NC(=O)[C@H](CO)NC3=O)NC(=O)[C@H](CCCCN)NC(=O)[C@H](CC(=O)O)NC(=O)[C@H](CC(N)=O)NC(=O)[C@H](CC(=O)O)NC(=O)[C@@H]2CCCN2C1=O [compound 679] | 86 nM | > 5000 nM | 240 nM | 
